Earlier results in US20170108488A1, “Array and Method of Use” (Quick Biology, Inc., priority 2015, published 2017).

Experiments:
SB-2 tumor xenograft = conditions: in combination with the MEK inhibitor GSK1120212; NRAS mutant melanoma
BRAF = BRAF (Homo sapiens, UniProt P15056, V600E); conditions: melanomas with BRAF activating mutations
Sequence of BRAF (P15056 whole entry V600E): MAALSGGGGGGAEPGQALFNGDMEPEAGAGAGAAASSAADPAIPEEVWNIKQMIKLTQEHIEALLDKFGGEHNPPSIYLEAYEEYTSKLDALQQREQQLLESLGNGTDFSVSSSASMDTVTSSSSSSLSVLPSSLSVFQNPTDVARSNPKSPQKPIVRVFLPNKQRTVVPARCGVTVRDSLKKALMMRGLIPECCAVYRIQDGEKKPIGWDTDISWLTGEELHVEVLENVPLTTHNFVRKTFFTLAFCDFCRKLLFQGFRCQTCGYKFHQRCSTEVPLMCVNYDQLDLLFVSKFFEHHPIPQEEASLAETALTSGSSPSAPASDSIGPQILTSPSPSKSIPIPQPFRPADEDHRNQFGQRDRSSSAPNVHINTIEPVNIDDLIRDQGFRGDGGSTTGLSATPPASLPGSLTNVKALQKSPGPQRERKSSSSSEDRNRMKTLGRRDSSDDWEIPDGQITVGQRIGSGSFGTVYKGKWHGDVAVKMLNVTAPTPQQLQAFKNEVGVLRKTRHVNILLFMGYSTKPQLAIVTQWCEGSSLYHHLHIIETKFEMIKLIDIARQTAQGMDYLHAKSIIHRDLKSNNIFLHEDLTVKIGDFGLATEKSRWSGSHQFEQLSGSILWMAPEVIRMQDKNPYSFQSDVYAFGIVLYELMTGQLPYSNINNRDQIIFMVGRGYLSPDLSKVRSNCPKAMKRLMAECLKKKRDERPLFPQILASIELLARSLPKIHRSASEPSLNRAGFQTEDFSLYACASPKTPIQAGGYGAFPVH

SMILES | tumor response in SB-2 tumor xenograft (SB-2 tumor xenograft) | success rate in melanomas (BRAF)
CC(=O)c1c(C)c2cnc(Nc3ccc(N4CCNCC4)cn3)nc2n(C2CCCC2)c1=O [PD-0332991] | tumor regression was achieved | –
CCCS(=O)(=O)Nc1ccc(F)c(C(=O)c2c[nH]c3ncc(-c4ccc(Cl)cc4)cc23)c1F [PLX4032] | – | high success rate
